Measured values as given in US12054509B2, “Antimicrobial compounds, compositions, and uses thereof” (Lakewood Amedex, Inc., priority 2017, dated 2024).
Like-named read-outs stand apart in the source and are kept apart here.

How the values were obtained:
Format in all cases: cell-based
Candida Albicans = experiment: MIC against a single isolate (Example 26); details: read-out: C. albicans MIC
Description: (§1) Bacterial strains evaluated in this study include Escherichia coli, Klebsiella spp, Serratia marcescens, Proteus mirabilis/vulgaris, Citrobacter spp, Providencia spp, Morganella morganii, Pseudomonas aeruginosa, Staphylococcus aureus (MRSA only), and Enterococcus faecalis. Nu-8 test solutions are adjusted to pH 3.5 with citric acid, and MIC is evaluated per the CLSI methods in Mueller-Hinton broth supplemented accordingly to facilitate growth of specific strains.
(§2) MIC was determined as per Example 9 using LAI-101, LAI-102, Nu-10, LAI-105, LAI-106, Nu-3, and Nu-8 against a single isolate of Escherichia coli. Pseudomonas aeruginosa, Staphylococcus aureus (MRSA only), and Candida Albicans. For all microbe species, the LAI-101, LAI-102, Nu-10, LAI-105, and LAI-106 all perform at least as well as, and in many experiments better than, Nu-8 and Nu-3, which are both already quite active compounds.

Escherichia coli = experiment: MIC against a single isolate (Example 26); details: read-out: E. coli MIC
Description: as §1, §2

Pseudomonas aeruginosa = experiment: MIC against a single isolate (Example 26); details: read-out: P. aeruginosa MIC
Description: as §1, §2

[1] = tested on: Staphylococcus aureus (MRSA only); experiment: MIC against a single isolate (Example 26); details: read-out: S. aureus MIC
Description: as §1, §2

E. coli (ATCC 25922) = experiment: Time kill assay in saline at pH 3.5 (Example 27); details: for Log10 CFU/mL: pH 3.5
Description: Log10 5 CFU of E. coli (ATCC 25922) were suspended in saline. Additionally, a sample of the saline only was prepared as a vehicle control (V.C.). Solutions of Nu-3, Nu-8, and Nu-10 at varying concentrations were adjusted to pH 3.5 with citric acid and added to the E. coli suspensions. At each time point (0, 1, 2.5, 5, 10, and 20 minutes), the treated bacterial suspensions were plated and incubated for 24 hrs, and each plate was read to determine the CFU count.
Tables 12-14 provide the time kill assay data for Nu-3 (Table 12), Nu-8 (Table 13) and Nu-10 (Table 14) against E. coli.

Nc1ccn([C@H]2C[C@H](OP(=O)(O)OCc3ccccc3)[C@@H](COP(=O)(O)OCc3ccccc3)O2)c(=O)n1 [LAI-102, ((2R,3S,5R)-5-(4-amino-2-oxopyrimidin-1(2H)-yl)-3-(((benzyloxy)(hydroxy)-phosphoryl)oxy)tetrahydrofuran-2-yl)methyl benzyl hydrogen phosphate]
MIC (Candida Albicans): 50000 µg/mL | MIC (Escherichia coli): 5000 µg/mL | MIC (Pseudomonas aeruginosa): 25000 µg/mL | MIC [1]: 25000 µg/mL

CCCCOP(=O)(O)OC[C@H]1O[C@@H](n2cnc3c(N)ncnc32)[C@H](OC)[C@@H]1OP(=O)(O)OCCCC [LAI-106, ((2R,3R,4R,5R)-5-(6-amino-9H-purin-9-yl)-3-((butoxy(hydroxy)phosphoryl)oxy)-4-methoxytetrahydrofuran-2-yl)methyl butyl hydrogen phosphate]
MIC (Candida Albicans; single isolate): 25000 µg/mL | MIC (Escherichia coli; single isolate): 1000 µg/mL | MIC (Pseudomonas aeruginosa; single isolate): 5000 µg/mL | MIC ([1]; single isolate): 5000 µg/mL

CCCCOP(=O)(O)OC[C@H]1O[C@@H](n2ccc(N)nc2=O)[C@H](OC)[C@@H]1OP(=O)(O)OCCCC [Nu-10, ((2R,3R,4R,5R)-5-(4-amino-2-oxopyrimidin-1(2H)-yl)-3-((butoxy(hydroxy)phosphoryl)oxy)-4-methoxytetrahydrofuran-2-yl)methyl butyl hydrogen phosphate]
MIC (Candida Albicans; single isolate): 5000 µg/mL | MIC (Escherichia coli; single isolate): 1000 µg/mL | MIC (Pseudomonas aeruginosa; single isolate): 5000 µg/mL | MIC ([1]; single isolate): 5000 µg/mL | Log10 CFU/mL (E. coli (ATCC 25922); 0.1% solution, 0 min): 5.20 Log10 CFU/mL | Log10 CFU/mL (E. coli (ATCC 25922); 0.1% solution, 1 min): 3.78 Log10 CFU/mL | Log10 CFU/mL (E. coli (ATCC 25922); 0.1% solution, 2.5 min): 3.38 Log10 CFU/mL | Log10 CFU/mL (E. coli (ATCC 25922); 0.1% solution, 5 min): 2.57 Log10 CFU/mL | Log10 CFU/mL (E. coli (ATCC 25922); 0.1% solution, 10 min): 0.00 Log10 CFU/mL | Log10 CFU/mL (E. coli (ATCC 25922); 0.1% solution, 20 min): 0.00 Log10 CFU/mL | Log10 CFU/mL (E. coli (ATCC 25922); 0.5% solution, 0 min): 5.20 Log10 CFU/mL | Log10 CFU/mL (E. coli (ATCC 25922); 0.5% solution, 1 min): 2.51 Log10 CFU/mL | Log10 CFU/mL (E. coli (ATCC 25922); 0.5% solution, 2.5 min): 0.00 Log10 CFU/mL | Log10 CFU/mL (E. coli (ATCC 25922); 0.5% solution, 5 min): 0.00 Log10 CFU/mL | Log10 CFU/mL (E. coli (ATCC 25922); 0.5% solution, 10 min): 0.00 Log10 CFU/mL | Log10 CFU/mL (E. coli (ATCC 25922); 0.5% solution, 20 min): 0.00 Log10 CFU/mL | Log10 CFU/mL (E. coli (ATCC 25922); 2.5% solution, 0 min): 5.20 Log10 CFU/mL | Log10 CFU/mL (E. coli (ATCC 25922); 2.5% solution, 1 min): 0.00 Log10 CFU/mL | Log10 CFU/mL (E. coli (ATCC 25922); 2.5% solution, 2.5 min): 0.00 Log10 CFU/mL | Log10 CFU/mL (E. coli (ATCC 25922); 2.5% solution, 5 min): 0.00 Log10 CFU/mL | Log10 CFU/mL (E. coli (ATCC 25922); 2.5% solution, 10 min): 0.00 Log10 CFU/mL | Log10 CFU/mL (E. coli (ATCC 25922); 2.5% solution, 20 min): 0.00 Log10 CFU/mL | time to complete kill of the bacteria (E. coli (ATCC 25922); concentration of 2.5%): ≤ 1 min
